PMC5259778, “Candidate pheromone receptors of codling moth Cydia pomonella respond to pheromones and kairomones” (Scientific Reports, 2017)

Columns and labels:
[1] = target: T1, CpomOrco + OR3 (Cydia pomonella, UniProt H9A5M3); assay: Calcium imaging of HEK293T cells expressing CpomOrco + OR3; format: cell-based
T1 sequence (H9A5M3 1-426): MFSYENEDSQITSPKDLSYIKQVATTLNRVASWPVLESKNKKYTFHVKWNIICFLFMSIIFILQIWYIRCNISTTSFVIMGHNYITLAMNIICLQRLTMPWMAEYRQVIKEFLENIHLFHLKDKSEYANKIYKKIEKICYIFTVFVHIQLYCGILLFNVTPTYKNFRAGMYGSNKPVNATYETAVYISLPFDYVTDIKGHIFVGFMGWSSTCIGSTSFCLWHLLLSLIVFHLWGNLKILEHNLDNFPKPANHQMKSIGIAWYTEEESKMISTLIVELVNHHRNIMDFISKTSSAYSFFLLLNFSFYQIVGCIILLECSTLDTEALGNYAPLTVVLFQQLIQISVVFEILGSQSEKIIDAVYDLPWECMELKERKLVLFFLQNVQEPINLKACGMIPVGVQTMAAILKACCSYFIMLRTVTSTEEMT
T1 sequence (H9A5M2 1-473 partner): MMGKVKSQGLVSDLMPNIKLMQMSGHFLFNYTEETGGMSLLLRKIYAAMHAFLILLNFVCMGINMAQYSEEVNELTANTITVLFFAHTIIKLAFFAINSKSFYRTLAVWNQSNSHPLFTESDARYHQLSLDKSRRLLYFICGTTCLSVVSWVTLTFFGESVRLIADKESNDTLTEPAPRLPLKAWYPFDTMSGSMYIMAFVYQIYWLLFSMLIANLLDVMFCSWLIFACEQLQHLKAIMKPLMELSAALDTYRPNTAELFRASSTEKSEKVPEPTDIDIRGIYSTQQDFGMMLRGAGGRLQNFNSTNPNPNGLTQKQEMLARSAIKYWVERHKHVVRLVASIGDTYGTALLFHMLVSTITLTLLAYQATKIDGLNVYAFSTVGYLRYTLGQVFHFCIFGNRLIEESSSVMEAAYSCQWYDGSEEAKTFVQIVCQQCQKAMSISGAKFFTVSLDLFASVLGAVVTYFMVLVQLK
Experimental: HEK293T cells were grown in HEK cell media [Dulbecco’s modified Eagle’s medium containing 10% fetal bovine serum (MP Biomedicals, Solon, OH, USA), 2.0 mM L-glutamine, and 100 μg/mL Penicillin/Streptomycin (Invitrogen)] at 37 °C and 5% CO2. To test transient expression of CpomORs for calcium imaging or patch-clamp recording experiments, 35-mm petri dishes containing semi-confluent HEK293T cells were transiently transfected. To transfect cells with CpomOrco, we used 1.0 μg of pcDNA5/TO/CpomOrco DNA. In order to promote expression of the OR[51], we used double aliquots for pcDNA5/TO/CpomOR DNAs (2.0 μg), combined with 1.0 μg of pcDNA5/TO/CpomOrco for co-transfections (CpomOrco + ORs). […] In order to report candidate OR-expressing cells, expression of both fluorescent reporter genes was under the regulation of the same promoter for CpomOR genes (CMV). Transfection DNAs were dissolved in 100 μL sterile DMEM, mixed with 3.0 μL Calfectin (SignaGen, Rockville, MD, USA) following the recommended protocol.
Transfections were conducted overnight. HEK cell media was replaced with 1.0 mL fresh media to incubate cells at 37 °C for up to 6 h, at which point part of the cell culture was spread in the middle of a 35-mm plate as individual cells or small clusters. After 12 h of incubation at 37 °C and 5% CO2, cells were rinsed at the sides with 2.0 mL fresh HEK media. Cells were allowed to recover for at least 1 h prior to calcium imaging.
After incubation, the buffer was removed and cells were rinsed with 4.0 mL fresh HEK Ca^++ Ringer (mM: 140 NaCl, 2.0 CaCl2, 10 HEPES, pH 7.5), and placed on the stage of an inverted microscope (Olympus IX-71, Olympus Corp., Tokyo, Japan) equipped with a cooled CCD camera (ORCA R2, Hamamatsu, Hamamatsu City, Japan). Cells were continuously superfused with Ca^++ Ringer using two gravity fed perfusion contours. The stimulating contour washing the cells (~250 μL/min) was switched rapidly to the stimulus contour using a multi-channel rapid solution changer (RSC-160, Bio-Logic, Claix, France) under the software control of Clampex 9 (Molecular Devices, Sunnyvale, CA, USA).
Fluorescence imaging was performed using Imaging Workbench 6 software (INDEC BioSystems, Santa Clara, CA, USA). Each cell was assigned a region of interest (ROI) and changes in fluorescence intensity within each ROI were measured and expressed as the fractional change in fluorescence intensity (dF) or in some cases as dF/F0 where F0 is the basal fluorescence level before agonist application. […] Continuous traces of multiple responses were compensated for slow drift of the baseline fluorescence when necessary. All recordings were performed at room temperature (22–25 °C).
Compounds were diluted in either DMSO or ethanol (Sigma Aldrich) depending on their solubility properties. […]

[2] = tested on: CpomOR6a; assay: Single sensillum recordings, CpomOR6a expressed in Drosophila at1 OSNs; format: cell-based, Cydia pomonella; conditions: 10 μg per stimulus
From the text: (§1) To perform heterologous expression in D. melanogaster OSNs, CpomORs were amplified using primers in Table 2 and purified PCR products were cloned into the PCR8/GW/TOPO plasmid (Invitrogen) following the recommended protocol. Cassettes with inserts were then transferred from their PCR8/GW/TOPO plasmids to the destination vector (pUASg-HA.attB, constructed by E. Furger and J. Bischof, kindly provided by the Basler group, Zürich), using the Gateway LR Clonase II kit (Invitrogen). The integrity and orientation of inserts was confirmed by sequencing (Sanger sequencer, 3730xl). Transformant UAS-CpomOR3 and UAS-CpomOR1 lines were generated by Best Gene (Chino Hills, CA, USA), using the PhiC31 integrase system, while the transformant UAS-CpomOR6a line was generated in our labs. Briefly, recombinant pUASg-HA.attB-CpomOR plasmids were injected into embryos of a D. melanogaster line containing an attP insertion site within the third chromosome (genotype y1 M{vas-int.Dm}ZH-2A w*; M{3xP3-RFP.attP}ZH-86Fb), leading to non-random integration. To drive expression of CpomORs in at1 OSNs in place of the endogenous receptor Or67d, transformant UAS-CpomOR lines were crossed to the knock-in Or67d^GAL4 line (kindly provided by Barry Dickson) to generate double homozygous lines w^+;UAS-CpomOR; Or67d^GAL4. Additionally, to drive expression of CpomOR3 in ab3A OSNs, the UAS-CpomOR3 line was crossed to the Δhalo;Or22a-Gal4 mutant line[20][57]. To verify insertion of UAS-CpomORs constructs into the genome, gDNA was extracted and used as template in PCR with primers for the full ORF of CpomORs (Table 2).
(§2) CpomOR1 and CpomOR6a expressed in at1 OSNs, and CpomOR3 expressed in ab3A OSNs, were tested through single sensillum recordings (SSR). Three to 8-day-old flies were immobilized in 100 μL pipette tips with only the top half of the head protruding. The left antenna of each insect was gently pushed with a glass capillary against a double-sided adhesive tape placed on a piece of glass. This piece of glass and the pipette tip were fixed with dental wax on a microscope slide. Electrolytically sharpened tungsten electrodes (Harvard Apparatus Ltd, Edenbridge, United Kingdom) were used to penetrate the insect´s body. The reference electrode was manually inserted in the right eye of the fly, while the recording electrode was manoeuvred with a DC-3K micromanipulator equipped with a PM-10 piezo translator (Märzhäuser Wetzler GmbH, Wetzler, Germany) and inserted at the base of the determined sensilla. Signals coming from the olfactory sensory neurons were amplified 10 times with a probe (INR-02, Syntech, Hilversum, the Netherlands), digitally converted through an IDAC-4-USB (Syntech) interface, and visualized and analysed with the software Autospike v. 3.4 (Syntech). A constant flow of 0.65 m/s of humidified air (charcoal-filtered) was delivered through a glass tube to the antenna. The panel of odorants was given to the insect by inserting pipettes containing a piece of filter paper with the correspondent stimulus in a lateral hole of the glass tube and puffing a flow of 2.5 mL of air during 0.5 s through the pipette. For CpomOR1 and CpomOR6a the panel of odorants was prepared by applying 10 μL of a solution of 1.0 μg/μL of the compounds in Supplementary Dataset S2 and Supplementary Dataset S3, for a total amount of 10 μg per stimulus. In the case of CpomOR3, a similar dilution process was used for the dose response experiments of ethyl-(E,Z)-2,4-decadienoate and methyl-(E,Z)-2,4-decadienoate, as well for dose response of experiments of codlemone acetate in CpomOR6a. Compounds were diluted from concentrations ranging from 0.01 ng/μL to 10 μg/μL in decadic steps, allowing reaching concentrations from 100 pg to 100 μg per stimulus when 10 μL of the dilution was applied in the piece of filter paper. […]

[3] = tested on: CpomOR1; assay: Single sensillum recordings, CpomOR1 expressed in Drosophila at1 OSNs; format: cell-based, Cydia pomonella; conditions: 10 μg per stimulus
From the text: as §1, §2

[4] = tested on: CpomOR3; assay: Single sensillum recordings, CpomOR3 expressed in Drosophila ab3A OSNs; format: cell-based, Cydia pomonella; conditions: dose loaded in the stimulus cartridge
From the text: To perform heterologous expression in D. melanogaster OSNs, CpomORs were amplified using primers in Table 2 and purified PCR products were cloned into the PCR8/GW/TOPO plasmid (Invitrogen) following the recommended protocol. Cassettes with inserts were then transferred from their PCR8/GW/TOPO plasmids to the destination vector (pUASg-HA.attB, constructed by E. Furger and J. Bischof, kindly provided by the Basler group, Zürich), using the Gateway LR Clonase II kit (Invitrogen). The integrity and orientation of inserts was confirmed by sequencing (Sanger sequencer, 3730xl). […]
CpomOR1 and CpomOR6a expressed in at1 OSNs, and CpomOR3 expressed in ab3A OSNs, were tested through single sensillum recordings (SSR). […] The reference electrode was manually inserted in the right eye of the fly, while the recording electrode was manoeuvred with a DC-3K micromanipulator equipped with a PM-10 piezo translator (Märzhäuser Wetzler GmbH, Wetzler, Germany) and inserted at the base of the determined sensilla. Signals coming from the olfactory sensory neurons were amplified 10 times with a probe (INR-02, Syntech, Hilversum, the Netherlands), digitally converted through an IDAC-4-USB (Syntech) interface, and visualized and analysed with the software Autospike v. […]

For `CCCCC/C=C\C=C\C(=O)OCC` [(E,Z)-ED, ethyl-(E,Z)-2,4-decadienoate], which “amplitude of the calcium response (mean of the maximum response ± SEM)” value ([1]; 500 μM, n = 151) is on record?
Its value is 15.07 ± 9.48 dF.

What about the EC50 ([1]; calcium response normalized to 250 μM VUAA3) of the same molecule?
Its EC50 is 454 ± 120 µM.

And the Spike/s ([2]; replicate 1)?
The Spike/s was 2 Spike/s.

What about the Spike/s ([2]; replicate 2) of the same molecule?
The Spike/s was -2 Spike/s.

What about the Spike/s ([2]; replicate 3) of the same molecule?
The Spike/s was 8 Spike/s.

What about the Spike/s ([2]; replicate 4) of the same molecule?
The Spike/s was 2 Spike/s.

What about the Spike/s ([2]; replicate 5) of the same molecule?
Its Spike/s is -14 Spike/s.

What about the Spike/s ([2]; replicate 6) of the same molecule?
The Spike/s was 8 Spike/s.

And the Spike/s ([2]; replicate 7)?
The Spike/s was 4 Spike/s.

And the Spike/s ([2]; replicate 8)?
The Spike/s was -2 Spike/s.

What about the Spike/s ([2]; replicate 9) of the same molecule?
Its Spike/s is 14 Spike/s.

And the Spikes/s ([3]; replicate 1)?
Its Spikes/s is -2 Spikes/s.

And the Spikes/s ([3]; replicate 2)?
The Spikes/s was 2 Spikes/s.

What about the Spikes/s ([3]; replicate 3) of the same molecule?
The Spikes/s was 2 Spikes/s.

What about the Spikes/s ([3]; replicate 4) of the same molecule?
The Spikes/s was 2 Spikes/s.

What about the Spikes/s ([3]; replicate 5) of the same molecule?
Its Spikes/s is 10 Spikes/s.

And the “minimum dose to elicit a response significantly different from the solvent” value [4]?
Its value is 100 ng.
